We go through twelve compounds from patent publication US11833160B2, “Ursodeoxycholic acid derivatives as HDAC inhibitors for the treatment of polycystic diseases” (UNIVERSIDAD DEL PAIS VASCO/EUSKAL HERRIKO UNIBERTSITATEA, priority 2017, dated 2023).

Each structure is given as a SMILES string.

For orientation: melting point means the temperature, or range, at which the solid turns liquid. Broadly, the IC50 is the concentration at which inhibition is half-maximal. A high value points to weaker potency.

One series has as its target T1, human HDAC5 (Homo sapiens, UniProt Q9UQL6).
T1 construct: GST (N); purchased BioMol, Hamburg, Germany; host or cells: baculovirus / Sf9 cells
Nature of the series: HDAC5 enzymatic activity assay (fluorogenic peptide). It is filed as biochemical. Conditions: 10-dose, 3-fold serial dilution, triplicate. The protocol:
(§1) Peptide substrates: all HDAC assays were performed using acetylated peptide substrates labeled with 7-amino-4-methylcoumarin (AMC): • Substrate for isoforms HDAC1, 2, 3, 6, 10, 11, and HeLa nuclear extract assays: acetylated fluorogenic peptide from p53 residues 379-382 (RHKKAc). • Substrate for isoforms HDAC4, 5, 7, 9: fluorogenic Boc-L-Lys (s-trifluoroacetyl)-AMC. • Substrate for HDAC8 assays: acetylated fluorogenic peptide from p53 residues 379-382 (RHKAcKAc).
50 μl of peptide substrate (see “peptide substrates” section above) and an optimal concentration of the corresponding enzyme (see “enzymes” section above) in the assay buffer at a final DMSO concentration of 1% were incubated in the presence of gradient concentrations of inhibitors (10-dose IC50 mode with 3-fold serial dilution) at 30° C. for 2 hours. The reactions were carried out in a 96-well microplate for fluorometry in a 50 μl reaction volume. After the deacetylation reaction, Fluor-de-Lys-Developer (BioMol Cat. #KI-105) was added to each well to digest the deacetylated substrate, thereby producing the fluorescent signal. The reaction was carried out for 45 minutes at 30° C. with 5% CO2; the fluorescent signal was then measured using an excitation wavelength of 360 nm and an emission wavelength of 460 nm in a microplate-reading fluorometer (GeminiXS, Molecular Devices, Sunnyvale, CA). […]

The target in the next series is T2, human HDAC7 (Homo sapiens, UniProt Q8WUI4).
T2 construct: amino acids 518 end with GST N-terminal tag, MW=78 kDa; GST (N); purchased BioMol, Hamburg, Germany; host or cells: baculovirus expression system
T2 sequence (Q8WUI4 479-952 limits assumed): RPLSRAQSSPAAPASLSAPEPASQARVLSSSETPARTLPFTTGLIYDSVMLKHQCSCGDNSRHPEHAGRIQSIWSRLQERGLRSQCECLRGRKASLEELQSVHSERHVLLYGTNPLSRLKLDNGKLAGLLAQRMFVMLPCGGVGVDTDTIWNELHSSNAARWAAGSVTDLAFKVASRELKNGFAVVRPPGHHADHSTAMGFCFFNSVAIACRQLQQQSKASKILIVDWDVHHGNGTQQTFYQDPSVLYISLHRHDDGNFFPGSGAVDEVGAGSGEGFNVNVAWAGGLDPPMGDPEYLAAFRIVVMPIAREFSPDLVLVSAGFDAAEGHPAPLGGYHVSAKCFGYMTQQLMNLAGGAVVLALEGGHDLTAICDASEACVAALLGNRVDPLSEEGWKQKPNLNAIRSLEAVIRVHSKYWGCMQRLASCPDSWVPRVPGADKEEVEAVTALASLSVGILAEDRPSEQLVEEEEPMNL
Nature of the series: HDAC7 enzymatic activity assay (fluorogenic peptide). Particulars: 10-dose, 3-fold serial dilution, triplicate. In kind it is biochemical. The protocol:
as §1
(§2) 50 μl of peptide substrate (see “peptide substrates” section above) and an optimal concentration of the corresponding enzyme (see “enzymes” section above) in the assay buffer at a final DMSO concentration of 1% were incubated in the presence of gradient concentrations of inhibitors (10-dose IC50 mode with 3-fold serial dilution) at 30° C. for 2 hours. The reactions were carried out in a 96-well microplate for fluorometry in a 50 μl reaction volume. After the deacetylation reaction, Fluor-de-Lys-Developer (BioMol Cat. #KI-105) was added to each well to digest the deacetylated substrate, thereby producing the fluorescent signal. The reaction was carried out for 45 minutes at 30° C. with 5% CO2; the fluorescent signal was then measured using an excitation wavelength of 360 nm and an emission wavelength of 460 nm in a microplate-reading fluorometer (GeminiXS, Molecular Devices, Sunnyvale, CA). A curve of deacetylated standard (Biomol, Cat. #KI-142; made from 100 μM with 1:2 dilution and 10 doses, 6 μl) allowed the conversion of the fluorescent signal into micromoles of deacetylated product. All experiments were performed in triplicate. The IC50s were calculated by fitting the experimental data to dose-response curve. DMSO was used as negative control; Trichostatin A (Biomol Cat. #GR-309) was used as positive control inhibitor.
(§3) Enzymatic activity assays were carried out in 11 HDAC enzymes, including HDAC6.

Another series deals with T3, human HDAC8 (Homo sapiens, UniProt Q9BY41).
T3 construct: purchased BioMol SE-145; host or cells: E. coli
T3 sequence (Q9BY41 1-377): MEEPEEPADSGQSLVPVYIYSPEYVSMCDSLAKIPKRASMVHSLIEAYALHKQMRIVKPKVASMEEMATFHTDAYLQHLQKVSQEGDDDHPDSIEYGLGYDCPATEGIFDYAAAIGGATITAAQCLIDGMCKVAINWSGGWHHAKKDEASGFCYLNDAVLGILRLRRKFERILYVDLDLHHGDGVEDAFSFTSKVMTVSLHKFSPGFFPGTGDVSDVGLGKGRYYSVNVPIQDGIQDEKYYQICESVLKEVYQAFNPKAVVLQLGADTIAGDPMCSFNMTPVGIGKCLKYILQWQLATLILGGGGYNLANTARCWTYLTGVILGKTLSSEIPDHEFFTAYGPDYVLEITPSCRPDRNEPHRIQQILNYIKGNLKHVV
Put plainly: HDAC8 enzymatic activity assay (fluorogenic peptide). It is filed as biochemical. Conditions: 10-dose, 3-fold serial dilution, triplicate. The protocol:
as §1, §2, §3

Another series addresses T4, human HDAC1 (Homo sapiens, UniProt Q13547).
T4 construct: GST (C); purchased BioMol SE-456; host or cells: baculovirus / Sf9 cells
Nature of the series: HDAC1 enzymatic activity assay (fluorogenic peptide). In kind it is biochemical. Particulars: for IC50: 10-dose, 3-fold serial dilution, triplicate. The protocol:
as §1, §2, §3

A further series addresses T5, human HDAC6 (Homo sapiens, UniProt Q9UBN7).
T5 construct: GST (N); purchased BioMol SE-508; host or cells: baculovirus / Sf9 cells
T5 sequence (Q9UBN7 1-1215): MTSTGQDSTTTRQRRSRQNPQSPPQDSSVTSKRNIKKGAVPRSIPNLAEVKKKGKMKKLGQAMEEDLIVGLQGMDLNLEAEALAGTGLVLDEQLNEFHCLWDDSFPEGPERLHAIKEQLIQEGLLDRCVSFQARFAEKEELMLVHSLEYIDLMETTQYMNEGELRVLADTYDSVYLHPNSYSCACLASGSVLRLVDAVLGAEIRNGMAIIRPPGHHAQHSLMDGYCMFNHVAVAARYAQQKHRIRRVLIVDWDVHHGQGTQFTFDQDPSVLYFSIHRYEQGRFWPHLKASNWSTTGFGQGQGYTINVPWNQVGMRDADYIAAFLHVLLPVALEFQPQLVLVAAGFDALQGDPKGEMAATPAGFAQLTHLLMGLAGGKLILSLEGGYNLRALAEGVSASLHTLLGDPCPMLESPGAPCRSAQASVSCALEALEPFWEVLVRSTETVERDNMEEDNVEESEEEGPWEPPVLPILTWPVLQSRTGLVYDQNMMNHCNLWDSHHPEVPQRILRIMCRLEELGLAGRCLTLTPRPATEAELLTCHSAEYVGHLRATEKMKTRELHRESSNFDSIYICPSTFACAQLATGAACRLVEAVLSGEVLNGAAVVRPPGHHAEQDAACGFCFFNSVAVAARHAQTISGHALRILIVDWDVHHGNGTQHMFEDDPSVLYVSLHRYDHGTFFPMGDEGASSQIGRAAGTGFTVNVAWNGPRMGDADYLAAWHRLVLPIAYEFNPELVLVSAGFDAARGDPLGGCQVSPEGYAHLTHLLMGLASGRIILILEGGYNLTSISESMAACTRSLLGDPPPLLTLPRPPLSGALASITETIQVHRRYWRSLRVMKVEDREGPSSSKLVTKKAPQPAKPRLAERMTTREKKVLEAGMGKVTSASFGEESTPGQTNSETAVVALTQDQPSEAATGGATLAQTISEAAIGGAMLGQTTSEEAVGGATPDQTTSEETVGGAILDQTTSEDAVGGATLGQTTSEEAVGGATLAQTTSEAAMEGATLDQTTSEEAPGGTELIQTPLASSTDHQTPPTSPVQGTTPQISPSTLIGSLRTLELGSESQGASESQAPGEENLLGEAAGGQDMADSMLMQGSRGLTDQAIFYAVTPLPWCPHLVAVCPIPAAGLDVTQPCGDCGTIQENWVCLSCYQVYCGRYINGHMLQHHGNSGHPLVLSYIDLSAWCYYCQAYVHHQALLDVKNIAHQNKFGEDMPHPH
Nature of the series: HDAC6 enzymatic activity assay (fluorogenic peptide). It is filed as biochemical. Conditions: for IC50: 10-dose, 3-fold serial dilution, triplicate; for HDAC6 selectivity proportion: matches IC50 HDAC1 / IC50 HDAC6. As for the experimental part:
as §1, §2, §3

The test system of a further series is HDAC enzymes. Put plainly: Enzymatic activity assays in 11 HDAC enzymes (statements on the panel). In kind it is biochemical, human. Particulars: for inhibitory capacity with respect to the rest of the HDAC enzymes: HDAC enzymes other than HDAC6. The protocol: as §1, §2, §3
The target in a further series is T6, human HDAC2 (Homo sapiens, UniProt Q92769).
T6 construct: His (C); purchased BioMol SE-500; host or cells: baculovirus / Sf9 cells
T6 sequence (Q92769 whole entry): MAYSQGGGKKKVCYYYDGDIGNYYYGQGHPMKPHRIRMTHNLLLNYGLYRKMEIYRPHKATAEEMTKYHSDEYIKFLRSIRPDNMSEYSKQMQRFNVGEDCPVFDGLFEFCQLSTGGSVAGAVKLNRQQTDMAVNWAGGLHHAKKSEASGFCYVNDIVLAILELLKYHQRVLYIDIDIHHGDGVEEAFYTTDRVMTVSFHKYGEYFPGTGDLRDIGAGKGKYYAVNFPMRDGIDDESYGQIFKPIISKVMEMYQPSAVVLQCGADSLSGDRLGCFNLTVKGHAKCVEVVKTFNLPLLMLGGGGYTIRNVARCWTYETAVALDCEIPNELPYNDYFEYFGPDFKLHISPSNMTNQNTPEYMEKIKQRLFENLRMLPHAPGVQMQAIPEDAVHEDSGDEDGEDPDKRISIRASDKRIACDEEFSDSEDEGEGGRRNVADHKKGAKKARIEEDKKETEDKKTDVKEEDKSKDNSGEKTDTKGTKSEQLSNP
Nature of the series: HDAC2 enzymatic activity assay (fluorogenic peptide). In kind it is biochemical. Conditions: 10-dose, 3-fold serial dilution, triplicate. The protocol:
as §1, §2, §3

T4 sequence (Q13547 whole entry): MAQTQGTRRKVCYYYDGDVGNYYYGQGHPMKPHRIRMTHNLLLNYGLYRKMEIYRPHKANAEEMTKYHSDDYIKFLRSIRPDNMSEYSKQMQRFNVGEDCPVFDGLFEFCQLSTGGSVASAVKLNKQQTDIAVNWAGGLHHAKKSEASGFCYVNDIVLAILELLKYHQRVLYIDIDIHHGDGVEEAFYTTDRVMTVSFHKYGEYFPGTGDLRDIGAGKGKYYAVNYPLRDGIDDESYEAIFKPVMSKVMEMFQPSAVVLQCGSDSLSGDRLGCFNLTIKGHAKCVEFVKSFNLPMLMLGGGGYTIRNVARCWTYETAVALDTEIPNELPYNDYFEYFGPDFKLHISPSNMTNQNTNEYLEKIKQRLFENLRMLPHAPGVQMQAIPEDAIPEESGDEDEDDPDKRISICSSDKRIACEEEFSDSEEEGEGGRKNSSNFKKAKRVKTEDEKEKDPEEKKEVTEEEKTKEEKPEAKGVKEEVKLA
T1 sequence (Q9UQL6 1-1123 isoform Q9UQL6-3): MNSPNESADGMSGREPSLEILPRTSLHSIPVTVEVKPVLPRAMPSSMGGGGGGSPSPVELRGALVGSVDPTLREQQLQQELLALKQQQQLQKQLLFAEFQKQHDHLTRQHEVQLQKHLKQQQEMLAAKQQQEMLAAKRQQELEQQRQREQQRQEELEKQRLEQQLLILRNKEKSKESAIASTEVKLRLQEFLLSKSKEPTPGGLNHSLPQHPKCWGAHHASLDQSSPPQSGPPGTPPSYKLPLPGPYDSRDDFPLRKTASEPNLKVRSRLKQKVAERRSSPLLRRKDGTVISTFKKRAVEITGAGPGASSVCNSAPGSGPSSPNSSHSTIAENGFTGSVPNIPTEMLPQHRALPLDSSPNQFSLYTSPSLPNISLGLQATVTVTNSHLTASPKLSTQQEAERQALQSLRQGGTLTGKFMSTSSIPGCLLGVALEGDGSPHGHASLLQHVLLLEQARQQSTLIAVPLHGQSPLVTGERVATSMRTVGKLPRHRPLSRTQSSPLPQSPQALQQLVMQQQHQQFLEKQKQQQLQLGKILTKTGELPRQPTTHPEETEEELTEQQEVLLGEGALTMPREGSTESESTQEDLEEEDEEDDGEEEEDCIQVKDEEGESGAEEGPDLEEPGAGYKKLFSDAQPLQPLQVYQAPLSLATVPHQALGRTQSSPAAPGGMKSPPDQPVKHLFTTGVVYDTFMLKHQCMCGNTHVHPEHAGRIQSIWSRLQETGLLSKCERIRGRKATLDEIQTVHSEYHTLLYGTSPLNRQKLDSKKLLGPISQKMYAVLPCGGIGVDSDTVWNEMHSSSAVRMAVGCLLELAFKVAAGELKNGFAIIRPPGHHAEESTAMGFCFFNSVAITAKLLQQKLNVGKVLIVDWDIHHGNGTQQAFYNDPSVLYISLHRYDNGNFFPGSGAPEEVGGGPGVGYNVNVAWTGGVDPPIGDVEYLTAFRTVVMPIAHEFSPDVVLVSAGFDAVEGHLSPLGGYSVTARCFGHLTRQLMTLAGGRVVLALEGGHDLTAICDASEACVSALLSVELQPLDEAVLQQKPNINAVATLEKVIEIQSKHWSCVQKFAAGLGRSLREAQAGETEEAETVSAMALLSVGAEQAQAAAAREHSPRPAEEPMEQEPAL

Take `C[C@H](NC(=O)CC[C@@H](C)[C@H]1CC[C@H]2[C@@H]3[C@@H](O)C[C@@H]4C[C@H](O)CC[C@]4(C)[C@H]3CC[C@]12C)C(=O)NO`: the melting point lay within 170 to 172 °C.
As to `C[C@H](CCC(=O)NCCC(=O)NO)[C@H]1CC[C@H]2[C@@H]3[C@@H](O)C[C@@H]4C[C@H](O)CC[C@]4(C)[C@H]3CC[C@]12C`, the melting point is 180 to 182 °C.
For the compound `C[C@H](CCC(=O)NCCCC(=O)NO)[C@H]1CC[C@H]2[C@@H]3[C@@H](O)C[C@@H]4C[C@H](O)CC[C@]4(C)[C@H]3CC[C@]12C`, the melting point fell in the range of 165 to 167 °C.
On the same count and under the same terms, then `C[C@H](CCC(=O)NCc1ccc(C(=O)NO)o1)[C@H]1CC[C@H]2[C@@H]3[C@@H](O)C[C@@H]4C[C@H](O)CC[C@]4(C)[C@H]3CC[C@]12C`, with 149 to 151 °C; and `C[C@H](CCC(=O)NCc1ccc(C(=O)Nc2cc(-c3ccccc3)ccc2N)cc1)[C@H]1CC[C@H]2[C@@H]3[C@@H](O)C[C@@H]4C[C@H](O)CC[C@]4(C)[C@H]3CC[C@]12C`, with 163 to 165 °C; and `C[C@H](CCC(=O)NCCS)[C@H]1CC[C@H]2[C@@H]3[C@@H](O)C[C@@H]4C[C@H](O)CC[C@]4(C)[C@H]3CC[C@]12C`, with 116 to 117 °C.
In turn, `C[C@H](CCC(=O)Nc1ccccc1S)[C@H]1CC[C@H]2[C@@H]3[C@@H](O)C[C@@H]4C[C@H](O)CC[C@]4(C)[C@H]3CC[C@]12C` came in with a melting point of 157 to 158 °C.
For `NCc1ccc(C(=O)NO)cc1` [4-(aminomethyl)-N-hydroxybenzamide, reference compound], the IC50 against human HDAC5 came out at 435 µM; against human HDAC7, 14.7 µM; at human HDAC8, 13.6 µM.
Compound `C[C@H](CCC(=O)NCCCCCC(=O)NO)[C@H]1CC[C@H]2[C@@H]3[C@@H](O)C[C@@H]4C[C@H](O)CC[C@]4(C)[C@H]3CC[C@]12C` [If, 6-((R)-4-((3R,5S,7S,8R,9S,10S,13R,14S,17R)-3,7-dihydroxy-10,13-dimethylhexadecahydro-1H-cyclopenta[a]phenanthren-17-yl)pentanamide)-N-hydroxyhexanamide] registered a melting point of 125 to 127 °C. On human HDAC1, this compound showed an IC50 of 2570 nM. In addition, on human HDAC6, the “selectivity and inhibitory capacity with respect to HDAC6 enzyme” value was “nanomolar range”; the IC50 came out at 82.1 nM; the HDAC6 selectivity proportion turned out to be 31. For the same compound, the “inhibitory capacity with respect to the rest of the HDAC enzymes” value with HDAC enzymes was “micromolar range”.
`C[C@H](CCC(=O)NCc1ccc(C(=O)NCc2ccc(C(=O)NO)cc2)cc1)[C@H]1CC[C@H]2[C@@H]3[C@@H](O)C[C@@H]4C[C@H](O)CC[C@]4(C)[C@H]3CC[C@]12C` [Ig, 4-(((R)-4-((3R,5S,7S,8R,9S,10S,13R,14S,17R)-3,7-dihydroxy-10,13-dimethylhexadecanohydro-1H-cyclopenta[a]phenanthren-17-yl)pentanamido)methyl)-N-(4-(hydroxycarbamoyl)benzyl)benzamide] displayed a melting point of 187 to 189 °C. The compound further gave an IC50 on human HDAC1 of 15200 nM. For the same compound, at human HDAC6, the “selectivity and inhibitory capacity with respect to HDAC6 enzyme” value was “nanomolar range”; the IC50 turned out to be 4.26 nM; the HDAC6 selectivity proportion came out at 3574. Also, the “inhibitory capacity with respect to the rest of the HDAC enzymes” value with HDAC enzymes was “micromolar range”.
In turn, `C[C@H](CCC(=O)NCc1ccc(C(=O)Nc2ccccc2N)cc1)[C@H]1CC[C@H]2[C@@H]3[C@@H](O)C[C@@H]4C[C@H](O)CC[C@]4(C)[C@H]3CC[C@]12C` [Ii, N-(2-aminophenyl)-4-(((R)-4-((3R,5S,7S,8R,9S,10S,13R,14S,17R)-3,7-dihydroxy-10,13-dimethylhexadecahydro-1H-cyclopenta[a]phenanthren-17-yl)pentanamide)methyl)benzamide] came in with a melting point of 168 to 170 °C. The same compound yielded an IC50 on human HDAC1 of 140 nM. Moreover, the HDAC1 selectivity proportion at human HDAC1 (matches IC50 HDAC6 / IC50 HDAC1) came to 58. Moreover, half-maximal inhibition at human HDAC2 (IC50) was put at 516 nM. This compound had an IC50 against human HDAC6 of 8080 nM.
As for `C[C@H](CCC(=O)O)[C@H]1CC[C@H]2[C@@H]3[C@@H](O)C[C@@H]4C[C@H](O)CC[C@]4(C)[C@H]3CC[C@]12C` [UDCA, ursodeoxycholic acid], the “inhibitory activity on any HDAC” value with HDAC enzymes (in the assayed concentration range) is given as “no inhibitory activity whatsoever”.
